Assay results taken from patent publication US6380257B1, “Aromatic di-keto derivatives, processes for their production and their use as a pharmaceutical” (Aventis Pharma Deutschland GmbH, priority 1999, dated 2002).
Where two headings read alike, the source gives them in different places.

Tests used:
[1] = molecular target: T1, glucose-6-phosphate translocase from rat liver microsomes (Rattus norvegicus, UniProt F7EWB7); assay: Inhibition of glucose-6-phosphate translocase from rat liver microsomes; type: biochemical
T1 construct: glucose-6-phosphate translocase from rat liver microsomes; from tissue; host or cells: rat liver microsomes
T1 sequence (F7EWB7 1-429): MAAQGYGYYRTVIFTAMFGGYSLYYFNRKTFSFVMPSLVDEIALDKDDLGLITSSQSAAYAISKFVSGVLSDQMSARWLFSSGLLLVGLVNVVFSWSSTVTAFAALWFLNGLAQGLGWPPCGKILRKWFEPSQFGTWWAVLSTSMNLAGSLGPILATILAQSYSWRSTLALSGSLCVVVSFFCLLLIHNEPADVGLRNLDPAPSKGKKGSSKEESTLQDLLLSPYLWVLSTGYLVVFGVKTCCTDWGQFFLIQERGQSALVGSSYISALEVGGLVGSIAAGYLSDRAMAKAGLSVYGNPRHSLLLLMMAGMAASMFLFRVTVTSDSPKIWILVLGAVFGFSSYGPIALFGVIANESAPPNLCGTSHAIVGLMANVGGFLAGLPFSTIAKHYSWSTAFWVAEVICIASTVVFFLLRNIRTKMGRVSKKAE

[2] = Stability of mumbaistatin in solution; type: physicochemical
[3] = molecular target: T2, microsomal glucose-6-phosphatase (Rattus norvegicus, UniProt P43428); assay: Inhibition of microsomal glucose-6-phosphatase; type: biochemical
T2 construct: from tissue; host or cells: liver microsomes (rat inferred)
T2 sequence (P43428 1-357): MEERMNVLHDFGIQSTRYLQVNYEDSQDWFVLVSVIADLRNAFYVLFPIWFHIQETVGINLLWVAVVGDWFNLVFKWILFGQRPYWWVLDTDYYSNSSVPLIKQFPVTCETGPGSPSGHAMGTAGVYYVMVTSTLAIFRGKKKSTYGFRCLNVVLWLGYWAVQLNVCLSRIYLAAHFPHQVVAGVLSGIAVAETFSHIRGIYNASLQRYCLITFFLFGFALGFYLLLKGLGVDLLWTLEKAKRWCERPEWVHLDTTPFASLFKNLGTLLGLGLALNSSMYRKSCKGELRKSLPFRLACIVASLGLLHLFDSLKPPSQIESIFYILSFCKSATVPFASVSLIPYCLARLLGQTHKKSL

With `NC(=O)c1c(O)cc2c(c1C(=O)c1c(O)cccc1C1(O)CCC(CC(=O)O)O1)C(=O)c1c(O)cccc1C2=O` (stereo not shown) [XXIIIA] the IC50 ([1]; read-out: inhibits glucose-6-phosphate translocase with an IC50) was roughly 1000 nM.

For mumbaistatin, the “stability in solution at acid pH” value ([2]; acid pH, conversion e.g. to compound of formula XIXD) was “rapidly undergoes a complex conversion”, the stability in solution ([2]; pH of around 6 to 9) was “limited stability” and the “Inhibition of microsomal glucose-6-phosphatase in 10 μM solution” value [3] was “activity was not demonstrable”. For the same compound, the IC50 ([1]; rat liver microsomes, listed as mumbaistain, read-out: Inhibition of glucose-6-phosphate translocase, IC50) was roughly 5 nM and the IC50 ([1]; rat liver microsomes, read-out: Inhibition of glucose-6-phosphate translocase, IC50) was 5 nM.

In the case of `COC(=O)CC1CCC2(O1)OC1(OC(=O)c3c(OC)cc4c(c31)C(=O)c1c(O)cccc1C4=O)c1c(OC)cccc12` (stereo not shown) [XIXB], the IC50 ([1]; read-out: Inhibition of glucose-6-phosphate translocase: IC50) is reported as greater than 100000 nM.
